{"source": "patent US12440498B2", "about": "(priority 2020, dated 2025)", "key": {"influenza": {"system": "influenza", "details": "human, in vivo; cited from earlier work"}, "[1]": {"details": "human, in vivo; cited from earlier work"}, "[2]": {"system": "A/H1N1nLuc recombinant virus", "experiment": "microbe, parasite or virus in culture", "type": "cell-based, influenza A virus"}, "flu virus": {"system": "flu virus", "details": "human, in vivo, po; cited from earlier work"}, "A/H1N1 virus": {"system": "A/H1N1 virus", "experiment": "microbe, parasite or virus in culture", "type": "cell-based, influenza A virus"}, "[3]": {"system": "recombinant A/H1N1 pdm09 wildtype (WT)", "type": "cell-based"}, "[4]": {"details": "in vivo; cited from earlier work"}, "[5]": {"system": "A/H3N2 (A/Texas/50/2012 H3N2)", "type": "cell-based, influenza A virus"}, "[6]": {"system": "A/H1N1 pdm09 (A/Lyon/969/2009 H1N1)", "type": "cell-based, influenza A virus"}}, "note": "Like-named read-outs stand apart in the source and are kept apart here.", "data": [{"smiles": "CCOC(=O)C1=C[C@@H](OC(CC)CC)[C@H](NC(C)=O)[C@@H](N)C1", "note": "[oseltamivir]", "values": [{"measurement": "median time to cessation of viral shedding", "setting": "influenza", "result": 72, "unit": "h"}]}, {"smiles": "COC(=O)OCOc1c2n(ccc1=O)N([C@@H]1c3ccccc3SCc3c1ccc(F)c3F)[C@@H]1COCCN1C2=O", "note": "[baloxavir marboxil]", "values": [{"measurement": "median time to cessation of viral shedding", "setting": "influenza", "result": 48, "unit": "h"}, {"measurement": "patients with mainly digestive side effects (nausea, diarrhea, etc.)", "setting": "[1]", "result": "4-5%"}]}, {"smiles": "NC(=O)c1nc(F)c[nH]c1=O", "note": "[favipiravir]", "values": [{"measurement": "EC50", "setting": "[2]; Influenza A virus, A549", "result": 2.49, "unit": "µM"}]}, {"smiles": "NC(=O)c1ncn([C@@H]2O[C@H](CO)[C@@H](O)[C@H]2O)n1", "note": "[ribavirin]", "values": [{"measurement": "efficacy against flu virus", "setting": "flu virus", "result": "not effective"}]}, {"smiles": "COc1ccc([C@@H]2Sc3ccccc3N(CCN(C)C)C(=O)[C@@H]2OC(C)=O)cc1.Cl", "note": "[diltiazem]", "values": [{"measurement": "IC50", "setting": "A/H1N1 virus; Influenza A virus, H1N1, MDCK, read-out: median inhibitory concentration (IC50)", "result": 5, "unit": "µM"}, {"measurement": "EC50", "setting": "[2]", "result": 53.8, "unit": "µM"}, {"measurement": "EC50", "setting": "[2]; Influenza A virus, A549", "result": 50.1, "unit": "µM"}]}, {"smiles": "O=C1c2c(O)c(=O)ccn2N([C@@H]2c3ccccc3SCc3c2ccc(F)c3F)[C@@H]2COCCN12", "note": "[baloxavir, baloxavir acid]", "values": [{"measurement": "reduction of production of A/H1N1 infectious particles", "setting": "[3]", "result": 3, "unit": "log 10"}, {"measurement": "half-life (hepatic elimination)", "setting": "[4]", "result": "50 to 90", "unit": "h"}, {"measurement": "increase of IC50 relative to the initial IC50", "setting": "A/H1N1 virus", "result": 35, "unit": "times"}, {"measurement": "reduction of production of A/H3N2 infectious particles", "setting": "[5]", "result": 3, "unit": "log 10"}, {"measurement": "EC50", "setting": "[2]; Influenza A virus, A549", "result": 0.000144, "unit": "µM"}, {"measurement": "reduction of production of A/H1N1 infectious particles", "setting": "[6]", "result": 4, "unit": "log 10"}]}]}
